Earlier results as cited in patent EP1911850A1, “Method of producing 6-thio-sialylated glycoproteins and glycoconjugates” (CENTRE NATIONAL DE LA RECHERCHE SCIENTIFIQUE (CNRS), priority 2006, dated 2008).

Test system: a galactosidase
Conditions: background statement; comparator not stated

- increased stability to digestion by a galactosidase: 200 fold
SMILES: CC(=O)N[C@H]1C(O)O[C@H](CO)[C@@H](O[C@@H]2S[C@H](CO)[C@H](O)[C@H](O)[C@H]2O)[C@@H]1O (stereo partly shown) [5'-Thio-N-acetyllactosamine]
